{"source": "ChEMBL document CHEMBL6083178", "about": "“Chemistry and pharmacological aspects of furanoid cannabinoids and related compounds: Is furanoid cannabinoids open a new dimension towards the non-psychoactive cannabinoids?” (Eur J Med Chem, 2024)", "key": {"Cannabinoid receptor 1 [1]": {"target": "Cannabinoid receptor 1 (Mus musculus, UniProt P47746)", "sequence (P47746 whole entry)": "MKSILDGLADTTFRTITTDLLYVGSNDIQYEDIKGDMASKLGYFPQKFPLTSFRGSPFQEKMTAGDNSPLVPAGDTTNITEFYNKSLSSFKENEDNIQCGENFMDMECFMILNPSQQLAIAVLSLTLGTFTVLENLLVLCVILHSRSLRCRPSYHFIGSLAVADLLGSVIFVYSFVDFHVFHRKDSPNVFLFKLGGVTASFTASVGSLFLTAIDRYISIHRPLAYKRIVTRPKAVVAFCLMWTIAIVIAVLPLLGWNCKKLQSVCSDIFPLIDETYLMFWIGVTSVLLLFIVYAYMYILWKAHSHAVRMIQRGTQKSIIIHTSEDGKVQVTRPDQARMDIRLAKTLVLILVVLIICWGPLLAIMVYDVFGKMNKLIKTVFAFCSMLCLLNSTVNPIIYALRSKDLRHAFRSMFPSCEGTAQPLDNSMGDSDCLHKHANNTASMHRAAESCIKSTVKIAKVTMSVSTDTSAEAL", "assay": "Displacement of [3H]CP55940 from mouse brain CB1 receptor assessed as inhibition constant"}, "Cannabinoid receptor 1 [2]": {"target": "T1, Cannabinoid receptor 1 (Homo sapiens, UniProt P21554)", "T1 sequence (P21554 whole entry)": "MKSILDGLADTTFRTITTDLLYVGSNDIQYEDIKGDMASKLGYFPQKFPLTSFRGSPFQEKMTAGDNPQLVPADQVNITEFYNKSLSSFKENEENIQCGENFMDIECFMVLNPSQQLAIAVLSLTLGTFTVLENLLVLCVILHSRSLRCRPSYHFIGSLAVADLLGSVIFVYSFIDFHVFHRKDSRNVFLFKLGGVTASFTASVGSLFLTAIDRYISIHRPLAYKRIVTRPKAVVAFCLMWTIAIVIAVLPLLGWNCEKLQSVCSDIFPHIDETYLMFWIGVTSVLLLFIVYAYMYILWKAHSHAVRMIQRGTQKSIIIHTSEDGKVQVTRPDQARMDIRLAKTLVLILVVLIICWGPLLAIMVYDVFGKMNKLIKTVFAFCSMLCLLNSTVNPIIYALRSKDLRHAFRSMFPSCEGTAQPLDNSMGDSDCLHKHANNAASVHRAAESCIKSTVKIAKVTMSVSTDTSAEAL", "assay": "Displacement of [3H]CP55940 from CB1 receptor (unknown origin) assessed as inhibition constant measured after 90 mins"}, "Cannabinoid receptor 2 [3]": {"target": "T2, Cannabinoid receptor 2 (Homo sapiens, UniProt P34972)", "T2 sequence (P34972 whole entry)": "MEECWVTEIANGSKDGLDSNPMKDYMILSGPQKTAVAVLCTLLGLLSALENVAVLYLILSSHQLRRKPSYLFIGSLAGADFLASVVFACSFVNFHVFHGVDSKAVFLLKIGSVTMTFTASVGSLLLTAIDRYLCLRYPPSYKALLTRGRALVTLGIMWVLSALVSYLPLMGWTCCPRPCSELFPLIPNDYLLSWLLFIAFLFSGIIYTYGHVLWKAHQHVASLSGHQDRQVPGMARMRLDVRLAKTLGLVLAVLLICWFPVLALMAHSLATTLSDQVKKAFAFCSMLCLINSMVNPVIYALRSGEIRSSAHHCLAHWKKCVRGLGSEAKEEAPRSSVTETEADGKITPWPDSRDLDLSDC", "assay": "Binding affinity to CB2 receptor (unknown origin) assessed as inhibition constant measured after 90 mins"}, "Cannabinoid receptor 1 [4]": {"target": "T1, Cannabinoid receptor 1", "assay": "Displacement of [3H]CP55940 from human CB1 receptor assessed as inhibition constant"}, "Cannabinoid receptor 2 [5]": {"target": "T2, Cannabinoid receptor 2", "assay": "Displacement of [3H]HU-243 from human CB2 receptor assessed as inhibition constant"}}}
{"smiles": "C=C(C)[C@@H]1CCC(C)=C[C@H]1c1c(O)cc(CCCCC)cc1O", "note": "[CANNABIDIOL]", "values": [{"measurement": "Ki", "setting": "Cannabinoid receptor 1 [1]", "result": 4400, "unit": "nM"}]}
{"smiles": "CCCCCc1cc(O)c2c(c1)OC(C)(CCC=C(C)C)C=C2", "note": "(configuration not stated) [CANNABICHROMENE]", "values": [{"measurement": "Ki", "setting": "Cannabinoid receptor 1 [2]", "result": 700, "unit": "nM"}, {"measurement": "Ki", "setting": "Cannabinoid receptor 2 [3]", "result": 200, "unit": "nM"}]}
{"smiles": "CCCCCc1cc(O)c2c(c1)OC(C)(C)c1ccc(C)cc1-2", "note": "[CANNABINOL]", "values": [{"measurement": "Ki", "setting": "Cannabinoid receptor 1 [4]", "result": 100, "unit": "nM"}]}
{"smiles": "CCCc1cc(O)c2c(c1)OC(C)(C)[C@@H]1CCC(C)=C[C@@H]21", "note": "[TETRAHYDROCANNABIVARIN]", "values": [{"measurement": "Ki", "setting": "Cannabinoid receptor 1 [4]", "result": 80, "unit": "nM"}]}
{"smiles": "CCCCCc1cc(O)c(C/C=C(\\C)CCC=C(C)C)c(O)c1", "note": "[CANNABIGEROL]", "values": [{"measurement": "Ki", "setting": "Cannabinoid receptor 2 [5]", "result": 100, "unit": "nM"}, {"measurement": "Ki", "setting": "Cannabinoid receptor 1 [4]", "result": 400, "unit": "nM"}]}
